Measurements from ChEMBL document CHEMBL3994611, “Synthesis and biological evaluation of deferiprone-resveratrol hybrids as antioxidants, Aβ1-42 aggregation inhibitors and metal-chelating agents for Alzheimer's disease” (Eur J Med Chem, 2017).
pIC50: −log10 of the molar value. Active and inactive are the calls of the source. The rule behind the calls is not given here.

Assays:
[1] = Binding affinity to CP645 probe-labeled Fe3+ in DMSO/MOPS buffer assessed as concentration of free Fe3+ in solution at 60 uM after 48 hrs by spectrofluorophotometric method
[2] = Antioxidant activity assessed as ABTS radical scavenging activity incubated for 10 mins under dark condition; format: functional
[3] = target: T1, Amyloid-beta precursor protein (Homo sapiens, UniProt P05067); assay: Inhibition of HFIP-pretreated amyloid beta (1 to 42) (unknown origin) self-induced aggregation at 20 uM incubated for 24 hrs under dark condition by thioflavin-T based fluorometric assay relative to control
[4] = target: T1, Amyloid-beta precursor protein; assay: Inhibition of HFIP-pretreated amyloid beta (1 to 42) (unknown origin) self-induced aggregation incubated for 24 hrs under dark condition by thioflavin-T based fluorometric assay
[5] = (§1) Binding affinity to Fe3+ assessed as inhibition of Fe3+-induced amyloid beta (1 to 42) aggregation by measuring Fe3+-amyloid beta (1 to 42) complex fluorescence at 50 uM incubated for 24 hrs under dark condition by thioflavin-T based fluorometric assay relative to control; design: scale not given: the % may be the effect or the level left
[6] = (§2) Binding affinity to Cu2+ assessed as inhibition of Cu2+-induced amyloid beta (1 to 42) aggregation by measuring Cu2+-amyloid beta (1 to 42) complex fluorescence at 75 uM incubated for 24 hrs under dark condition by thioflavin-T based fluorometric assay relative to control; design: scale not given: the % may be the effect or the level left
[7] = Binding affinity to Fe3+ assessed as inhibition of Fe3+-induced amyloid beta (1 to 42) aggregation at 50 uM incubated for 24 hrs under dark condition by uranyl acetate staining based transmission electron microscopic method
[8] = Binding affinity to Cu2+ assessed as inhibition of Cu2+-induced amyloid beta (1 to 42) aggregation at 75 uM incubated for 24 hrs under dark condition by uranyl acetate staining based transmission electron microscopic method
[9] = as §1, with “disaggregation” for “inhibition”, “treated” for “incubated for”, “hrs after Fe3+ addition measured after 24 hrs incubation” for “hrs”
[10] = as §2, with “disaggregation” for “inhibition”, “treated” for “incubated for”, “hrs after Cu2+ addition measured after 24 hrs incubation” for “hrs”
[11] = Binding affinity to Fe3+ assessed as disaggregation of Fe3+-induced amyloid beta (1 to 42) aggregation at 50 uM incubated for 24 hrs under dark condition by uranyl acetate staining based transmission electron microscopic method
[12] = Binding affinity to Cu2+ assessed as disaggregation of Cu2+-induced amyloid beta (1 to 42) aggregation at 75 uM incubated for 24 hrs under dark condition by uranyl acetate staining based transmission electron microscopic method
[13] = Binding affinity to Fe3+ in DMSO/MOPS buffer assessed as maximal absorbance intensity at iron to ligand ratio of 1:4 by UV-visible spectrophotometric method
[14] = Binding affinity to Fe3+ assessed as cumulative stability constant
[15] = Binding affinity to Cu2+ assessed as cumulative stability constant
[16] = Binding affinity to Zn2+ assessed as cumulative stability constant

T1 sequence (P05067 whole entry): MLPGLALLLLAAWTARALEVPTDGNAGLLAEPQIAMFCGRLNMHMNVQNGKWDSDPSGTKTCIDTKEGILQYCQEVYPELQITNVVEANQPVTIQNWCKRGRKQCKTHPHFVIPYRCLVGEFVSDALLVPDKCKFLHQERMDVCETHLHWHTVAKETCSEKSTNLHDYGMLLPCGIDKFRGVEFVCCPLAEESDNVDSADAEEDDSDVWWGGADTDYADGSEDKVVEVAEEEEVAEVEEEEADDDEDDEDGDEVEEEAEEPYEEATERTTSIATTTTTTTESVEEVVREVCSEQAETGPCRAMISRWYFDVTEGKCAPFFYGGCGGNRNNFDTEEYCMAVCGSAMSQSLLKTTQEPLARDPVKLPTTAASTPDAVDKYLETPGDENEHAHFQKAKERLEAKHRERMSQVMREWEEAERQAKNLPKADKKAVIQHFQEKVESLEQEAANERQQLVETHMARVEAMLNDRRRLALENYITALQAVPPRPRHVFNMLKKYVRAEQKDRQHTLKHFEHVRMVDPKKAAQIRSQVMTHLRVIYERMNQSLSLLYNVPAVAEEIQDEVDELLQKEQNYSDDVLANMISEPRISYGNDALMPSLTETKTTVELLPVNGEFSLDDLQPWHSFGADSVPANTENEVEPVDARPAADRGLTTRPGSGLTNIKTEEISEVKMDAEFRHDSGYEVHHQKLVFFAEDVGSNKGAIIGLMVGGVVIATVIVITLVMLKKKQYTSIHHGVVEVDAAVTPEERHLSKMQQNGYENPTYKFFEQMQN

Row | Compound | log free Fe3+ concentration [1] | pIC50 [2] | inhibition [3] | pIC50 [4] | other results
1 | CCOc1ccc(/C=C/c2cc(=O)c(O)c[nH]2)cc1 | -20.1 | 5.09 | 51.5% | 4.63 | –
2 | O=c1cc(/C=C/c2cccc(F)c2)[nH]cc1O | -20.2 | 5.20 | 53.2% | 4.72 | –
3 | O=c1cc(/C=C/c2ccc(Cl)cc2)[nH]cc1O | -19.5 | 4.94 | 11.6% | – | –
4 | COc1cc(/C=C/c2cc(=O)c(O)c[nH]2)cc(OC)c1 | -21.6 | 4.94 | 35.3% | – | –
5 | CN(C)c1ccc(/C=C/c2cc(=O)c(O)c[nH]2)cc1 | -20.1 | 5.47 | 49.6% | 4.53 | –
6 | Cn1cc(O)c(=O)cc1/C=C/c1ccc(Cl)cc1 | -20.8 | 5.24 | 14.5% | – | –
7 | O=c1cc(/C=C/c2ccccc2O)[nH]cc1O | -20.2 | 5.66 | 49.3% | 4.66 | –
8 | CN(C)c1ccc(/C=C/c2cc(=O)c(O)cn2C)cc1 | -19.2 | 5.60 | 44.9% | – | –
9 | Cn1cc(O)c(=O)cc1/C=C/c1ccc(O)cc1 | -20.1 | 5.86 | 52.5% | 4.81 | –
10 | O=c1cc(/C=C/c2ccc([N+](=O)[O-])cc2)[nH]cc1O | -19.5 | 5.32 | – | – | –
11 | Cc1c(C)c2c(c(C)c1O)CCC(C)(C(=O)O)O2 (stereo not drawn) [TROLOX] | – | 5.41 | – | – | –
12 | Cn1cc(O)c(=O)cc1/C=C/c1cc(O)cc(O)c1 | -20.1 | 5.92 | 22.4% | – | –
13 | O=c1cc(/C=C/c2cc(O)cc(O)c2)[nH]cc1O | -19.2 | 6.06 | 18.2% | – | –
14 | Cn1cc(O)c(=O)cc1/C=C/c1ccccc1O | -20.3 | 5.74 | 31.1% | – | –
15 | CCOc1ccc(/C=C/c2cc(=O)c(O)cn2C)cc1 | -19 | 5.40 | 65.3% | 5.05 | Activity [5]: 64%; Activity [6]: 57%; Activity [7]: Active; Activity [8]: Active; Activity [9]: 16%; Activity [10]: 47%; Activity [11]: Active; Activity [12]: Active
16 | O=c1cc(/C=C/c2ccc(O)cc2)[nH]cc1O | -19.6 | 5.76 | 58.4% | 4.97 | Activity [13]: Active; Activity [5]: 62%; Activity [6]: 65%; Activity [7]: Active; Activity [8]: Active; Activity [9]: 25%; Activity [10]: 69%; Activity [11]: Active; Activity [12]: Active
17 | Oc1ccc(/C=C/c2cc(O)cc(O)c2)cc1 [RESVERATROL] | – | 6.12 | – | – | Activity [5]: 87%; Activity [6]: 86%; Activity [9]: 58%; Activity [10]: 35%; Activity [11]: Active; Activity [12]: Active
18 | Cc1c(O)c(=O)ccn1C | -20.6 | – | – | – | K [14]: 37.2; K [15]: 21.7; K [16]: 13.5
19 | COc1cc(/C=C/c2cc(=O)c(O)cn2C)cc(OC)c1 | -21.2 | 5.43 | 28.3% | – | –
20 | O=c1cc(/C=C/c2ccccc2)[nH]cc1O | -21 | 5.39 | 38.2% | – | –
21 | COc1ccccc1/C=C/c1cc(=O)c(O)c[nH]1 | -20.2 | 5.17 | 54.9% | 4.78 | –
22 | Cn1cc(O)c(=O)cc1/C=C/c1ccc([N+](=O)[O-])cc1 | -18.4 | 4.72 | – | – | –
23 | Cn1cc(O)c(=O)cc1/C=C/c1cccc(F)c1 | -20.1 | 5.88 | 52.4% | 4.71 | –
24 | COc1ccccc1/C=C/c1cc(=O)c(O)cn1C | -20.6 | 5.38 | 56.8% | 4.90 | –
25 | Cn1cc(O)c(=O)cc1/C=C/c1ccccc1 | -19.8 | 5.68 | 21.6% | – | –
